# Measurements reported in patent US6080780A, “Use of nitroflavonoids for the treatment of anxiety” (University of Strathclyde, priority 1995, dated 2000).
# Where two headings read alike, the source gives them in different places.
# What was measured:
# [1] = target: central benzodiazepine receptors (BDZ-Rs); assay: 3H-FNZ binding to rat brain synaptosomal membranes (Section 3); settings: rat cerebral cortex; read-out: Ki, 3H-FNZ binding
# Experimental: In brief, for each assay, triplicate samples of the membranes, containing 0.2 to 0.4 mg protein were suspended in a final volume of 1 mL of 0.25 mM Tris--HCl buffer, pH 7.3. The incubation was carried out at 4° C. for 60 min with 0.6 nM ^3 H--FNZ. to study the binding saturation, a range of 0.3 to 10 nM ^3 H--FNZ was used. […] The assays were terminated by filtration under vacuum through Whatman GF/A glass-fiber filters, and three washes with 3 mL each of incubation medium. Filters were dried and counted after the addition of 5 mL of 2,5-diphenyloxazole/xylene as scintillation fluid.
# The binding of ^3 H--FNZ was carried out as for (i) above.
# [2] = target: central benzodiazepine receptors; assay: Autoradiographic [3H]-FNZ displacement on rat brain sections; type: binding, rat (Wistar); settings: for Ki: n=3, read-out: Ki, [3H]-FNZ binding, autoradiography
# Experimental: (§1) Wistar rats were decapitated and brains rapidly removed. Sagittal sections (15 μm in thickness) were prepared at -20° C. using a microtome-cryostat. The tissue slices were kept frozen at -70° C. until used. For DNF displacement curves to [^3 H]--FNZ binding (0.65 nM), tissue sections were incubated for 60 min at 4° C. in 25 mM Tris HCl buffer, pH 7.4, in presence of different concentrations of DNF (1-600 nM). For non-specific binding we used 10 μM FNZ. The incubation was terminated by rinsing the sections for two min in cold buffer. Sections were briefly dipped in cold distilled water and dried rapidly under a stream of cold air (Niddam et al., 1987).
# (§2) Autoradiograms were generated by apposing the slide-mounted tissue section to tritium-sensitive film (Hyperfilm Amersham) in a light-proof X-ray cassette at 4° C. for two weeks.
# (§3) The optical densities from different brain regions were converted first to radioactive units and then to fmol/mm^2 using the [^3 H] standards on the film with the aid of a computerized image densitometric analysis system (MCID 4.02). The values were normalized and the Ki values were determined using a computerized program (Graph-Pad Prism) Bernabeu et al., 1995; Cammarota et al., 1995).
# [3] = target: T1, central benzodiazepine receptor type I (Rattus norvegicus, UniProt P18508+P62813); assay: [3H]-zolpidem binding to rat synaptosomal membranes; design: species or system rat (Wistar); settings: read-out: Ki, [3H]-ZOLP binding
# T1 construct: washed crude synaptosomal membranes from rat cerebral cortex; from tissue; host or cells: Wistar rat cerebral cortex, striatum, cerebellum (crude synaptosomal membranes)
# Experimental: Adult male Wistar rats weighing 250 g were used for biochemical experiments. Adult male Swiss male weighing 25-30 g were used for pharmacological assays except for inhibitory avoidance and tail flick tests were done in rats. Animals were housed in a controlled environment, with free access to food and water and maintained on a 12 h/12 h day/night cycle.
# Displacement curves were performed using [^3 ]-FNZ or [^3 H]-zolpidem ([^3 H]-ZOLP) as radioligands in washed crude synaptosomal membranes from rat cerebral cortex, cerebellum, hippocampus, striatum or spinal cord. Membrane preparations were carried out according to Medina et al. (1990). Briefly, brains were rapidly dissected out on ice and the different structures were homogenized in 10 volumes of 0.32 M sucrose and centrifuged at 900×g for 10 min. The resulting supernatant was centrifuged at 100,000×g for 30 min and the pellet washed twice in 25 mM Tris HCl buffer pH 7.4 at 100,000×g for 30 min, and stored at -20° C. until used.
# For [^3 H]-ZOLP (50.8 Ci/mmol, NEN) binding assays we used the technique of Arbilla et al. (1986), slightly modified as follows: displacement curves were done with 1 nM of the radioligand and 10 μM zolpidem to determine the nonspecific binding (<15%). The incubation of the samples (0.4 mg protein in 1 ml of 50 mM Tris HCl buffer, pH 7.4, 120 mM NaCl, 5 mM KCl) was carried out at 4' C. during 30 min. […]
# [4] = system: rats; assay: Tail-flick test in rats; type: in vivo, rat
# Experimental: This test was performed according to Siegfried et al. (1987). Analgesia was assessed with a tail-flick apparatus. Rats were wrapped in a towel and placed on the apparatus; the light source positioned below the tail was focused on a point 2.3 cm rostral to the tip of the tail. Deflection of the tail activated a photocell and automatically terminated the trial. Light intensity was adjusted so as to obtain a baseline tail-flick latency (TFL) of 3-6 s. A cut-off time of 10 s was used to prevent tissue damage. Briefly, the general procedure was as follows: a baseline TFL value was obtained for each animal. Following this, the rats were placed alone in a waiting cage. TFL value was measured 1 h after an i.p. injection of vehicle or DNF.
# [5] = target: central benzodiazepine receptor (Rattus norvegicus, UniProt P18508+P62813); assay: Autoradiographic [3H]-FNZ displacement on rat brain sections; type: binding, rat (Wistar); design: Wistar rats were decapitated and brains rapidly removed; from tissue; host or cells: Wistar rat brain sagittal sections
# Experimental: as §1, §2, §3
# [6] = system: muscarinic cholinergic receptors; type: binding; settings: 20 μM; data not shown
# T1 sequence (P62813 28-455): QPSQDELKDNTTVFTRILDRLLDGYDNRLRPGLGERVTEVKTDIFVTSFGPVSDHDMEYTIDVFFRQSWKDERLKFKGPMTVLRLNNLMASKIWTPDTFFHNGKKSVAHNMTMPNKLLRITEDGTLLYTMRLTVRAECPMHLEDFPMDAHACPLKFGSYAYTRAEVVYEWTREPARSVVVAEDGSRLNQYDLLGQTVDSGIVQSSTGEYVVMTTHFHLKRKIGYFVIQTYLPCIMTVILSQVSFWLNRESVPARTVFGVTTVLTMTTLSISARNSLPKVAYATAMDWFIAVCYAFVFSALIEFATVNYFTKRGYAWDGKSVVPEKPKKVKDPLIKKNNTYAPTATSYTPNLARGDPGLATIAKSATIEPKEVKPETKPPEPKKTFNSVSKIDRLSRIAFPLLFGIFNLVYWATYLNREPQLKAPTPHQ
# T1 sequence (P18508 39-466): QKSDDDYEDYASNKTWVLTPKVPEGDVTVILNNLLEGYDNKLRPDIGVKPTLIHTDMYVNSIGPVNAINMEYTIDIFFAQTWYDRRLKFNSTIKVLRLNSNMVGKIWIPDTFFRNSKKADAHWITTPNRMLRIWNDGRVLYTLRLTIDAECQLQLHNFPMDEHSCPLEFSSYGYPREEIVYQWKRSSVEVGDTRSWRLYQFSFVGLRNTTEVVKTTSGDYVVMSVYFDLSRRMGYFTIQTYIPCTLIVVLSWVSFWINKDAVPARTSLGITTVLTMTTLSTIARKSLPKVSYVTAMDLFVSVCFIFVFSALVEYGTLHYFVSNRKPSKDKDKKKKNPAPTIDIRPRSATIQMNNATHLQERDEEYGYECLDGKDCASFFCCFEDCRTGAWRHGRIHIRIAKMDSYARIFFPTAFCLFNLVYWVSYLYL
# T1 sequence (P63138 25-474 partner limits assumed): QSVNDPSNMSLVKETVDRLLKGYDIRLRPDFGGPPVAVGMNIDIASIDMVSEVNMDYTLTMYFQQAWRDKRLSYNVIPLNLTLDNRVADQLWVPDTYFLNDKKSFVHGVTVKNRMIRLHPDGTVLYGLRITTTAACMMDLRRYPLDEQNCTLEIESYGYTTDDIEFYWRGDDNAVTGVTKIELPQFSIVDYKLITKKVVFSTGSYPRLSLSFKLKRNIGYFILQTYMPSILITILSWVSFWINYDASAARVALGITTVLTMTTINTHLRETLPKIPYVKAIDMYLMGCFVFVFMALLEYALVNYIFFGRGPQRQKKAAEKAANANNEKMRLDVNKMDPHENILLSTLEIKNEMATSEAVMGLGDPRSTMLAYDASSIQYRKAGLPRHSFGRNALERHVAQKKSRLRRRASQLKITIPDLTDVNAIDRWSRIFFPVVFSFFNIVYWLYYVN
# Chain of central benzodiazepine receptor (P62813 28-455): as the sequence (P62813 28-455) above
# Chain of central benzodiazepine receptor (P18508 39-466): as the sequence (P18508 39-466) above
# Chain of central benzodiazepine receptor (P63138 26-474 partner): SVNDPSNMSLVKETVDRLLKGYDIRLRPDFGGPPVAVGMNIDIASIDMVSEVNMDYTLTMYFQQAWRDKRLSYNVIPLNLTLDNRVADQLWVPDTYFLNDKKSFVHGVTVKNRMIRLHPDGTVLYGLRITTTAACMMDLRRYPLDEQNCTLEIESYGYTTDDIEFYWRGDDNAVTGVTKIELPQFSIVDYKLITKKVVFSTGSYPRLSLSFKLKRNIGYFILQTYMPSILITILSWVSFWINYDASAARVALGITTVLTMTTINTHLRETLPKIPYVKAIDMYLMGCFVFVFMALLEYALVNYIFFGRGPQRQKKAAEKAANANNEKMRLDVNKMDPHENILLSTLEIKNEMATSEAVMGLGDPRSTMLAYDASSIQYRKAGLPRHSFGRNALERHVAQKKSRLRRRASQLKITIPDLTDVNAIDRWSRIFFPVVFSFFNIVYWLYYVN
smiles,measurement,setting,value
"O=c1cc(-c2cccc([N+](=O)[O-])c2)oc2ccc([N+](=O)[O-])cc12 [Compound (II), 6,3'-dinitroflavone]",Ki,[1],20 nM
same,Ki,[2]; dentate gyrus,82.2 ± 7.6 nM
same,Ki,[2]; parietal cortex,30.1 ± 2.6 nM
same,"potency to displace [3H]-FNZ, cerebellum vs dentate gyrus",[2]; ratio,5 times
same,Ki,[2]; striatum,53.7 ± 7.3 nM
same,Ki,"[3]; rat cerebellum, n=3",17 ± 1.5 nM
same,Ki,"[3]; rat cerebral cortex, n=5",17.2 ± 3.7 nM
same,tail-flick latency (TFL),"[4]; rats, 100 μg/kg, 1 h after i.p., median (interquartile), n=11, vehicle 3.2 s",3.5 s
same,TFL (in words),"[4]; rats, i.p., 100 μg/kg",did not alter TFL
same,analgesic effects,[4]; up to 10 mg/kg as worded,"did not evidence anticonvulsant, myorelaxant, amnesic or analgesic effects"
same,Ki,[5],17.2 ± 2.3 nM
same,displacement of [3H]-quinuclidinyl benzilate binding,[6],did not displace
